Experimental data: patent US6737383B1, “Herbicidal oxadiazolidines” (priority 1999, dated 2004)

Key:
[1] = tested on: bedstraw; assay: Test B pre/postemergence bedstraw; type: in vivo, Galium aparine
Procedure, shortened: (§1)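 Herbicidal effect was estimated by eye on a ten-point control scale after plants spent twelve to sixteen days in a greenhouse following soil or foliar treatment. Foliar sprays targeted plants at one to four leaves; all doses were formulated in a non-phytotoxic solvent with surfactant.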

[2] = tested on: pigweed; assay: Test B pre/postemergence pigweed; type: in vivo, Amaranthus retroflexus
Procedure, shortened: as §1

[3] = tested on: rice; assay: Test B flood test rice; type: in vivo, Oryza sativa
Procedure, shortened: (§2)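 Flood test on plants grown to the 2-leaf stage; treated plants kept in greenhouse twelve to sixteen days, then visually rated against controls on a 0 (no effect) to 10 (complete control) scale.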

[4] = tested on: crabgrass; assay: Test B pre/postemergence crabgrass; type: in vivo, Digitaria sanguinalis
Procedure, shortened: as §1

[5] = tested on: smallflower flatsedge; assay: Test B flood test smallflower flatsedge; type: in vivo, Cyperus difformis
Procedure, shortened: as §2

[6] = tested on: sugar beet; assay: Test B pre/postemergence sugar beet; type: in vivo, Beta vulgaris
Procedure, shortened: as §1

[7] = tested on: velvetleaf; assay: Test B pre/postemergence velvetleaf; type: in vivo, Abutilon theophrasti
Procedure, shortened: as §1

[8] = tested on: surinam grass; assay: Test B pre/postemergence surinam grass; type: in vivo, Brachiaria decumbens
Procedure, shortened: as §1

[9] = tested on: corn; assay: Test B pre/postemergence corn; type: in vivo, Zea mays
Procedure, shortened: as §1

[10] = tested on: soybean; assay: Test B pre/postemergence soybean; type: in vivo, Glycine max
Procedure, shortened: as §1

[11] = tested on: cocklebur; assay: Test B pre/postemergence cocklebur; type: in vivo, Xanthium strumarium
Procedure, shortened: as §1

[12] = tested on: blackgrass; assay: Test B pre/postemergence blackgrass; type: in vivo, Alopecurus myosuroides
Procedure, shortened: as §1

[13] = tested on: wild oat; assay: Test B pre/postemergence wild oat; type: in vivo, Avena fatua
Procedure, shortened: as §1

[14] = tested on: giant foxtail; assay: Test B pre/postemergence giant foxtail; type: in vivo, Setaria faberii
Procedure, shortened: as §1

[15] = tested on: purple nutsedge; assay: Test B pre/postemergence purple nutsedge; type: in vivo, Cyperus rotundus
Procedure, shortened: as §1

[16] = tested on: bamyardgrass; assay: Test B flood test barnyardgrass; type: in vivo, Echinochloa crus-galli
Procedure, shortened: as §2

[17] = Postemergence, Rate 62 g/ha, scale 0 to 10, 0 is no effect, 10 is complete control
[18] = Postemergence, Rate 250 g/ha, scale 0 to 10, 0 no effect, 10 complete control
[19] = Preemergence, Rate 62 g/ha, scale 0 to 10, 0 is no effect, 10 is complete control
[20] = Preemergence, Rate 125 g/ha, scale 0 to 10 (0 no effect, 10 complete control)
[21] = Preemergence, Rate 250 g/ha, scale of 0 to 10 where 0 is no effect and 10 is complete control
[22] = Preemergence, Rate 500 g/ha, scale 0 (no effect) to 10 (complete control)
[23] = Rate 125 g/ha, Postemergence, scale 0 to 10, 0 no effect, 10 complete control
[24] = Rate 500 g/ha, Postemergence, 0 to 10 scale (0 no effect, 10 complete control)
[25] = Rate 125 g/ha, Postemergence section (flood test species), scale 0 to 10, 0 no effect, 10 complete control
[26] = Rate 500 g/ha, Postemergence section of Table B, 0 to 10 scale (0 no effect, 10 complete control)
[27] = flood test, listed under Postemergence, Rate 250 g/ha, scale 0 to 10, 0 no effect, 10 complete control

In the case of Cc1ccccc1-n1c(=O)on(C(=O)N(c2ccc([N+](=O)[O-])cc2)C(C)C)c1=O [Compound 44], the “Bedstraw plant response rating” value [1, 17] was 0, the “Bedstraw plant response rating” value [1, 18] was 0 and the “Plant response rating, Bedstraw” value [1, 19] was 0. The “Plant response rating, Bedstraw” value [1, 20] was 0, the “Plant response rating, Bedstraw” value [1, 21] was 0 and the “Bedstraw plant response rating” value [1, 22] was 0. For the same compound, the “Bedstraw plant response rating” value [1, 23] was 0, the “Bedstraw plant response rating” value [1, 24] was 0 and the “Redroot pigweed plant response rating” value [2, 17] was 0. For the same compound, the “Redroot pigweed plant response rating” value [2, 18] was 0, the “Plant response rating, Redroot pigweed” value [2, 19] was 0 and the “Plant response rating, Redroot pigweed” value [2, 20] was 0. The “Plant response rating, Redroot pigweed” value [2, 21] was 0, the “Redroot pigweed plant response rating” value [2, 22] was 0 and the “Redroot pigweed plant response rating” value [2, 23] was 0. For the same compound, the “Redroot pigweed plant response rating” value [2, 24] was 0, the “Rice plant response rating” value [3, 17] was 0 and the “Rice plant response rating” value [3, 25] was 0. For the same compound, the “Rice plant response rating” value [3, 26] was 0, the “Rice plant response rating” value [3, 27] was 0 and the “Crabgrass plant response rating” value [4, 17] was 0. The “Crabgrass plant response rating” value [4, 18] was 0, the “Plant response rating, Crabgrass” value [4, 19] was 0 and the “Plant response rating, Crabgrass” value [4, 20] was 0. The “Plant response rating, Crabgrass” value [4, 21] was 0, the “Crabgrass plant response rating” value [4, 22] was 2 and the “Crabgrass plant response rating” value [4, 23] was 0. For the same compound, the “Crabgrass plant response rating” value [4, 24] was 0, the “S. Flatsedge plant response rating” value [5, 17] was 0 and the “S. Flatsedge plant response rating” value [5, 25] was 0. For the same compound, the “S. Flatsedge plant response rating” value [5, 27] was 0, the “Sugarbeets plant response rating” value [6, 17] was 0 and the “Sugarbeets plant response rating” value [6, 18] was 0. The “Plant response rating, Sugarbeets” value [6, 19] was 0, the “Plant response rating, Sugarbeets” value [6, 20] was 0 and the “Plant response rating, Sugarbeets” value [6, 21] was 0. For the same compound, the “Sugarbeets plant response rating” value [6, 22] was 0, the “Sugarbeets plant response rating” value [6, 23] was 0 and the “Velvetleaf plant response rating” value [7, 17] was 0. For the same compound, the “Velvetleaf plant response rating” value [7, 18] was 0, the “Plant response rating, Velvetleaf” value [7, 19] was 0 and the “Plant response rating, Velvetleaf” value [7, 20] was 0. For the same compound, the “Plant response rating, Velvetleaf” value [7, 21] was 0, the “Velvetleaf plant response rating” value [7, 22] was 0 and the “Velvetleaf plant response rating” value [7, 23] was 0. For the same compound, the “B. signalgrass plant response rating” value [8, 17] was 0, the “B. signalgrass plant response rating” value [8, 18] was 0 and the “Plant response rating, B. signalgrass” value [8, 19] was 0. The “Plant response rating, B. signalgrass” value [8, 20] was 0, the “Plant response rating, B. signalgrass” value [8, 21] was 0 and the “B. signalgrass plant response rating” value [8, 22] was 0. The “B. signalgrass plant response rating” value [8, 23] was 0, the “B. signalgrass plant response rating” value [8, 24] was 0 and the “Corn plant response rating” value [9, 17] was 0. The “Corn plant response rating” value [9, 18] was 0, the “Plant response rating, Corn” value [9, 19] was 0 and the “Plant response rating, Corn” value [9, 20] was 0. The “Plant response rating, Corn” value [9, 21] was 0, the “Corn plant response rating” value [9, 22] was 0 and the “Corn plant response rating” value [9, 23] was 0. For the same compound, the “Corn plant response rating” value [9, 24] was 0, the “Soybean plant response rating” value [10, 17] was 0 and the “Soybean plant response rating” value [10, 18] was 1. The “Plant response rating, Soybean” value [10, 19] was 0, the “Plant response rating, Soybean” value [10, 20] was 0 and the “Plant response rating, Soybean” value [10, 21] was 0. The “Soybean plant response rating” value [10, 22] was 0, the “Soybean plant response rating” value [10, 23] was 0 and the “Cocklebur plant response rating” value [11, 17] was 0. For the same compound, the “Cocklebur plant response rating” value [11, 18] was 0, the “Plant response rating, Cocklebur” value [11, 19] was 0 and the “Plant response rating, Cocklebur” value [11, 21] was 0. For the same compound, the “Cocklebur plant response rating” value [11, 22] was 0, the “Cocklebur plant response rating” value [11, 23] was 0 and the “Cocklebur plant response rating” value [11, 24] was 0. The “Blackgrass plant response rating” value [12, 17] was 0, the “Blackgrass plant response rating” value [12, 18] was 0 and the “Plant response rating, Blackgrass” value [12, 19] was 0. The “Plant response rating, Blackgrass” value [12, 20] was 0, the “Plant response rating, Blackgrass” value [12, 21] was 0 and the “Blackgrass plant response rating” value [12, 22] was 1. For the same compound, the “Blackgrass plant response rating” value [12, 23] was 0, the “Blackgrass plant response rating” value [12, 24] was 0 and the “Wild oats plant response rating” value [13, 17] was 0. For the same compound, the “Wild oats plant response rating” value [13, 18] was 0, the “Plant response rating, Wild oats” value [13, 20] was 0 and the “Plant response rating, Wild oats” value [13, 21] was 0. For the same compound, the “Wild oats plant response rating” value [13, 22] was 0, the “Wild oats plant response rating” value [13, 23] was 0 and the “Giant foxtail plant response rating” value [14, 17] was 0. For the same compound, the “Giant foxtail plant response rating” value [14, 18] was 0, the “Plant response rating, Giant foxtail” value [14, 19] was 0 and the “Plant response rating, Giant foxtail” value [14, 20] was 0. For the same compound, the “Plant response rating, Giant foxtail” value [14, 21] was 0, the “Giant foxtail plant response rating” value [14, 22] was 1 and the “Giant foxtail plant response rating” value [14, 23] was 0. The “Giant foxtail plant response rating” value [14, 24] was 0, the “Nutsedge plant response rating” value [15, 17] was 0 and the “Nutsedge plant response rating” value [15, 18] was 0. The “Plant response rating, Nutsedge” value [15, 19] was 0, the “Plant response rating, Nutsedge” value [15, 20] was 0 and the “Plant response rating, Nutsedge” value [15, 21] was 0. For the same compound, the “Nutsedge plant response rating” value [15, 22] was 0, the “Nutsedge plant response rating” value [15, 23] was 0 and the “Nutsedge plant response rating” value [15, 24] was 0. The “Barnyardgrass plant response rating” value [16, 17] was 0, the “Barnyardgrass plant response rating” value [16, 25] was 0 and the “Barnyardgrass plant response rating” value [16, 26] was 0. The “Barnyardgrass plant response rating” value [16, 27] was 0.
